One series has as its target T1, COX-II (Homo sapiens, UniProt P35354).
T1 construct: lipopolysaccharide for 24 hrs at 37° C. for induction of COX-II; from tissue; host or cells: fresh heparinized human whole blood from volunteers, stimulated with LPS for 24 hrs
T1 sequence (P35354 18-604): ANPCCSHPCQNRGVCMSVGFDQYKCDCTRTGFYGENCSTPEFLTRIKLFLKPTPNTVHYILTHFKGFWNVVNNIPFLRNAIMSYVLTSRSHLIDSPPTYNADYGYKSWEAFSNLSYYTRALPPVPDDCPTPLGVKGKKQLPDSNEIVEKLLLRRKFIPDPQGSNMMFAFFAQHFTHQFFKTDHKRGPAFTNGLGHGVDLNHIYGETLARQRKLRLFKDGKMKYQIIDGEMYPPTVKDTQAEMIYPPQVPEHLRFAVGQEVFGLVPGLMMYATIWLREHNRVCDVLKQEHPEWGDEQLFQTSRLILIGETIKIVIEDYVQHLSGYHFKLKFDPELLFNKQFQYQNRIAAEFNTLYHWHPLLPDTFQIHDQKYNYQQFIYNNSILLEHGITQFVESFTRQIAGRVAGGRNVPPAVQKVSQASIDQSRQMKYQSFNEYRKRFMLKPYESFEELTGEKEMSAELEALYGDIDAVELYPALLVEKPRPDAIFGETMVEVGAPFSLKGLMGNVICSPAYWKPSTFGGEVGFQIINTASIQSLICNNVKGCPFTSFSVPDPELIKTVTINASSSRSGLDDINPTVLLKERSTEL
In words: Whole blood assay for COX-II (LPS-induced PGE2 production). Format: cell-based. Particulars: lipopolysaccharide 24 hrs at 37° C. The method, then: Whole Blood Assay for COX-II
Fresh blood was collected in heparinized tubes by syringe from volunteers with consent. The subjects had no apparent inflammatory conditions and had not taken any medication for at least 7 days prior to blood collection.
500 μl aliquots of human whole blood were incubated with either 2 μl dimethyl sulfoxide vehicle or 2 μl of a test compound at final concentrations for 15 min at 37° C. This was followed by incubation of the blood with […] of 5 mg/ml lipopolysaccharide for 24 hrs at 37° C. for induction of COX-II. Appropriate PBS treatments (no LPS) were used as blanks. At the end of the incubation, the blood was centrifuged at 6000×g for 5 min at 4° C. to obtain plasma. A 100 μl aliquot of plasma was mixed with 400 μl methanol for protein precipitation. The supernatant was obtained by centrifuging at 6000×g for 5 min at 4° C. and was assayed for prostaglandin E2 (PGE2) using a radioimmunoassay kit after conversion of PGE2 to its methyl oximate derivative according to the manufacturer's procedure.
For a test compound, the results were expressed as percent inhibition of […] production relative to control incubations containing dimethyl sulfoxide vehicle. The data were analyzed by that a test compound at the indicated concentrations was changed log value and was applied simple linear regression. IC50 value was calculated by least squares method.

The next series addresses T2, COX-I (Homo sapiens, UniProt P23219).
T2 construct: Fresh blood was collected by syringe without anticoagulants from volunteers with consent; from tissue; host or cells: fresh human whole blood from volunteers, no anticoagulant, left to clot
In words: Whole blood assay for COX-I (TXB2 production). Format: cell-based. Particulars: 1 hr at 37° C. The method, then:
[B] Inhibiting Activity Against COX-I and COX-II (Whole Blood Assay): (i) Test Method: Whole Blood Assay for COX-I
Fresh blood was collected by syringe without anticoagulants from volunteers with consent. The subjects had no apparent inflammatory conditions and had not taken any medication for at least 7 days prior to blood collection.
500 μl aliquots of human whole blood were immediately incubated with 2 μl of either dimethyl sulfoxide vehicle or a test compound at final concentrations for 1 hr at 37° C. to allow the blood to clot. Appropriate treatments (no incubation) were used as blanks. At the end of the incubation, 5 μl of 250 mM Indomethacin was added to stop the reaction. The blood was centrifuged at 6000×g for 5 min at 4° C. to obtain serum. A 100 μl aliquot of serum was mixed with 400 μl methanol for protein precipitation. The supernatant was obtained by centrifuging at 6000×g for 5 min at 4° C. and was assayed for TXB2 using an enzyme immunoassay kit according to the manufacturer's procedure. For a test compound, the results were expressed as percent inhibition of thromboxane B2(TXB2) production relative to control incubations containing dimethyl sulfoxide vehicle.
The data were analyzed by that a test compound at the indicated concentrations was changed log value and was applied simple linear regression. IC50 value was calculated by least squares method.

Series [1] concerns adjuvant arthritis in rats. The experiment in a line: Analgesic activity: effect on adjuvant arthritis in rats (Randall-Selitto pain threshold). The format is in vivo, Lewis rats. Particulars: dose 3.2 mg/kg; ratio of threshold pressure of treated vs non-treated arthritic rats, 2 hrs after administration; ratio of 1.5 = effective dose.

T2 sequence (P23219 24-599): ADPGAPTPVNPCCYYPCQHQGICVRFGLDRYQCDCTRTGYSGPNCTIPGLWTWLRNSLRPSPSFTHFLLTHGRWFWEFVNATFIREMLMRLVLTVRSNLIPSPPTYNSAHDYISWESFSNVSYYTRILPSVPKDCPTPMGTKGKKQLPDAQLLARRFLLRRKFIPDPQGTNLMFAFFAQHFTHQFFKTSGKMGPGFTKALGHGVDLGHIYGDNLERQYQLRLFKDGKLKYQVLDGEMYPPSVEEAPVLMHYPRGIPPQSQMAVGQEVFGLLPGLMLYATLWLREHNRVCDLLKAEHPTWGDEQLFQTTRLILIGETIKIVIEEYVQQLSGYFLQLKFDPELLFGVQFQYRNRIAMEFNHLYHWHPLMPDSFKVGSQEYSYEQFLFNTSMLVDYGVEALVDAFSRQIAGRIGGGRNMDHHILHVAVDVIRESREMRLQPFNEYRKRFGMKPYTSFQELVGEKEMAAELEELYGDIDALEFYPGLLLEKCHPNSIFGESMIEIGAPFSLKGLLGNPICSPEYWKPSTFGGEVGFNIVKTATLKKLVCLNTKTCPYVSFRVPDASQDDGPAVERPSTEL

Consider `CCOC(=O)c1cn(-c2ccc(OCc3ccccc3)cc2)c(-c2ccc(OC)nc2)n1` [Example 35-2, 1-(4-Benzyloxyphenyl)-4-ethoxycarbonyl-2-(2-methoxy-5-pyridinyl)-1H-imidazole], for which the melting point (usually the temperature of the solid-liquid transition) is 109 to 110 °C.

With `COc1ccc(-c2nc(C#N)cn2-c2ccc(C#N)cc2)cc1` [Example 27, 4-Cyano-1-(4-cyanophenyl)-2-(4-methoxyphenyl)-1H-imidazole], the melting point was 185 to 186 °C.

In turn, `COc1ccc(-c2nc(C(F)(F)F)cn2-c2ccc(O)cc2)cc1` [Example 62, 1-(4-Hydroxyphenyl)-2-(4-methoxyphenyl)-4-trifluoromethyl-1H-imidazole] had a melting point of 215 to 216 °C.

`COc1ccc(-c2nc(C(F)(F)F)cn2-c2ccc(C#N)cc2)cn1` [Example 8, 1-(4-Cyanophenyl)-2-(2-methoxy-5-pyridinyl)-4-trifluoromethyl-1H-imidazole] came in with a melting point of 155 to 158 °C. Also, at COX-II, the concentration for half-maximal inhibition (IC50) (in general, the concentration needed to halve the response being measured) is at least 100 nM. Besides, the IC50 against COX-I is under 10 nM.

On to `CCOC(=O)c1cn(-c2ccc(OC)cc2)c(-c2ccc(OC)nc2)n1` [Example 41-2, 4-Ethoxycarbonyl-1-(4-methoxyphenyl)-2-(2-methoxy-5-pyridinyl)-1H-imidazole], for which the melting point was 135 to 137 °C.

As for `COc1ccc(-c2nc(C(F)(F)F)cn2-c2ccc(O)cc2)cn1` [Example 6, 1-(4-Hydroxyphenyl)-2-(2-methoxy-5-pyridinyl)-4-trifluoromethyl-1H-imidazole], the melting point lay within 198 to 200 °C.

As for `COc1ccc(-c2nc(C(C)=O)cn2-c2ccc(OC)cc2)cc1` [Example 28, 4-Acetyl-1-(4-methoxyphenyl)-2-(4-methoxyphenyl)-1H-imidazole], the melting point lay in the range of 116 to 117 °C. In series [1], the “The coefficient of analgesic” value was over 1.5.

The compound `COc1ccc(-n2cc(C#N)nc2-c2ccc(OC)nc2)cc1` [Example 4-2, 4-Cyano-1-(4-methoxyphenyl)-2-(2-methoxy-5-pyridinyl)-1H-imidazole] yielded a melting point of 130 to 132 °C. Besides, the IC50 against COX-II was at least 100 nM. The IC50 on COX-I is under 10 nM.

`CCC(=O)c1cn(-c2ccc(O)cc2)c(-c2ccc(OC)nc2)n1` [Example 56, 4-Ethylcarbonyl-1-(4-hydroxyphenyl)-2-(2-methoxy-5-pyridinyl)-1H-imidazole]: the melting point was 221 to 223 °C.

`CCN(CC)C(=O)c1cn(-c2ccc(OCc3ccccc3)cc2)c(-c2ccc(OC)cc2)n1` [Example 48, 1-(4-Benzyloxyphenyl)-4-(N,N-diethylcarbamoyl)-2-(4-methoxyphenyl)-1H-imidazole] displayed a melting point of 146 to 147 °C.

Compound `COc1ccc(-c2nc(C#N)cn2-c2ccc(OC)cc2)cc1` [Example 12-2, 4-Cyano-1-(4-methoxyphenyl)-2-(4-methoxyphenyl)-1H-imidazole] yielded a melting point of 132 to 134 °C.

`COc1ccc(-c2nc(C(F)(F)F)cn2-c2ccc(Br)cc2)cc1` [Example 1-2, 1-(4-Bromophenyl)-2-(4-methoxyphenyl)-4-trifluoromethyl-1H-imidazole]: the melting point was 140 to 141 °C. Also, at COX-II, the concentration for half-maximal inhibition (IC50) was at least 100 nM. Besides, the IC50 against COX-I is under 10 nM.

Take `COc1ccc(-c2nc(C(=O)C(C)C)cn2-c2ccc(O)cc2)cn1` [Example 58, 4-Isopropylcarbonyl-1-(4-hydroxyphenyl)-2-(2-methoxy-5-pyridinyl)-1H-imidazole]: the melting point lay in the range of 185 to 187 °C.

Turning to `CCOC(=O)c1ccc(-n2cc(C#N)nc2-c2ccc(OC)cc2)cc1` [Example 25-2, 4-Cyano-1-(4-ethoxycarbonylphenyl)-2-(4-methoxyphenyl)-1H-imidazole], the melting point is 139 to 140 °C.

The compound `CCC(=O)c1cn(-c2ccc(OCc3ccccc3)cc2)c(-c2ccc(OC)nc2)n1` [Example 55, 1-(4-Benzyloxyphenyl)-4-ethylcarbonyl-2-(2-methoxy-5-pyridinyl)-1H-imidazole] gave a melting point of 126 to 128 °C.

The compound `COc1ccc(-c2nc(C(=O)C(C)C)cn2-c2ccc(OCc3ccccc3)cc2)cn1` [Example 57, 1-(4-Benzyloxyphenyl)-4-isopropylcarbonyl-2-(2-methoxy-5-pyridinyl)-1H-imidazole] came in with a melting point of 118 to 120 °C.

The compound `COc1ccc(-c2nc(C(N)=O)cn2-c2ccc(OC)cc2)cc1` [Example 10, 4-Carbamoyl-1-(4-methoxyphenyl)-2-(4-methoxyphenyl)-1H-imidazole] came in with a melting point of 167 to 169 °C.

As for `COc1ccc(-c2nc(C(F)F)cn2-c2ccc(O)cc2)cc1` [Example 32, 4-Difluoromethyl-1-(4-hydroxyphenyl)-2-(4-methoxyphenyl)-1H-imidazole], the melting point was in the range of 143 to 145 °C.

The compound `CCOC(=O)c1cn(-c2ccc(OC)cc2)c(-c2ccc(OC)cc2)n1` [Example 9, 4-Ethoxycarbonyl-1-(4-methoxyphenyl)-2-(4-methoxyphenyl)-1H-imidazole] showed a melting point of 142 to 143 °C.

Consider `COc1ccc(-c2nc(C)cn2-c2ccc(OC)cc2)cc1.Cl` [Example 21, 1-(4-Methoxyphenyl)-2-(4-methoxyphenyl)-4-methyl-1H-imidazole hydrochloride], for which the melting point was in the range of 203 to 205 °C. Also, the IC50 at COX-II is at least 100 nM. On COX-I, the IC50 is under 10 nM.

Turning to `CCN(C)C(=O)c1cn(-c2ccc(OCc3ccccc3)cc2)c(-c2ccc(OC)cc2)n1` [Example 46, 1-(4-Benzyloxyphenyl)-4-(N-ethyl-N-methylcarbamoyl)-2-(4-methoxyphenyl)-1H-imidazole], the melting point was 118 to 119 °C.

The compound `COc1ccc(-c2nc(C(F)F)cn2-c2ccc(OC)cc2)cc1.Cl` [Example 17, 4-Difluoromethyl-1-(4-methoxyphenyl)-2-(4-methoxyphenyl)-1H-imidazole hydrochloride] yielded a melting point of 150 to 153 °C. The same compound returned a half-inhibitory concentration (IC50) at COX-II of at least 100 nM. In addition, the IC50 against COX-I is under 10 nM.

As to `COc1ccc(-c2nc(C(=O)O)cn2-c2ccc(OC)cc2)cc1` [Example 18, 4-Carboxy-1-(4-methoxyphenyl)-2-(4-methoxyphenyl)-1H-imidazole], the melting point lay within 102 to 105 °C.

`COc1ccc(-c2nc(C(F)F)cn2-c2ccc(C#N)cc2)cc1` [Example 34, 1-(4-Cyanophenyl)-4-difluoromethyl-2-(4-methoxyphenyl)-1H-imidazole] registered a melting point of 131 to 132 °C. At COX-II, the IC50 is at least 100 nM. Besides, the IC50 on COX-I was under 10 nM.

In the case of `COc1ccc(-c2nc(C3CC3)cn2-c2ccc(OC)cc2)cc1.Cl` [Example 20, 4-Cyclopropyl-1-(4-methoxyphenyl)-2-(4-methoxyphenyl)-1H-imidazole hydrochloride], the melting point was in the range of 180 to 181 °C. Moreover, the IC50 against COX-II is at least 100 nM. Moreover, the half-inhibitory concentration (IC50) against COX-I was under 10 nM.
